Assay [1] has as its system HER3 mRNA. The assay can be described thus: real-time qPCR of HER3 mRNA. It is filed as cell-based, human. As to conditions: BT474, SKBR3, MDA453 cells; 6 μM; time course up to 48 hours. The method, then:
FIG. 12B depicts a bar chart of timed HER3 mRNA transcription in BT474 cells which were treated with 2 μM 5J8, 20 μM LY294002, and 50 nM rapamycin for 10 hours prior to RNA isolation and qPCR analysis with HER3-specific primers.
A general note: In qPCR the cycle at which signal appears reflects the starting amount.

For assay [2], the target named is p110α catalytic subunit of PI3K (Homo sapiens, UniProt P42336). Nature of the assay: in vitro PI3K assay (PI3K-induced ATP consumption). The format is biochemical. The settings on record: read-out: in vitro IC50 against p110α. From the text: Compounds of formula I have been tested using the assay described in Biological Example 1 of WO2007044729 and have been determined to be PI3K inhibitors. As such, compounds of formula I are useful for treating diseases, particularly cancer in which PI3K activity contributes to the pathology and/or symptomatology of the disease. For example, cancer in which PI3K activity contributes to its pathology and/or symptomatology include breast cancer, colon cancer, rectal cancer, endometrial cancer, gastric carcinoma, glioblastoma, hepatocellular carcinoma, small cell lung cancer, non-small cell lung cancer, melanoma, ovarian cancer, pancreatic cancer, prostate carcinoma, acute myelogenous leukemia (AML), chronic myelogenous leukemia (CML), and thyroid carcinoma, and the like.
p110α catalytic subunit of PI3K, sequence (P42336 whole entry): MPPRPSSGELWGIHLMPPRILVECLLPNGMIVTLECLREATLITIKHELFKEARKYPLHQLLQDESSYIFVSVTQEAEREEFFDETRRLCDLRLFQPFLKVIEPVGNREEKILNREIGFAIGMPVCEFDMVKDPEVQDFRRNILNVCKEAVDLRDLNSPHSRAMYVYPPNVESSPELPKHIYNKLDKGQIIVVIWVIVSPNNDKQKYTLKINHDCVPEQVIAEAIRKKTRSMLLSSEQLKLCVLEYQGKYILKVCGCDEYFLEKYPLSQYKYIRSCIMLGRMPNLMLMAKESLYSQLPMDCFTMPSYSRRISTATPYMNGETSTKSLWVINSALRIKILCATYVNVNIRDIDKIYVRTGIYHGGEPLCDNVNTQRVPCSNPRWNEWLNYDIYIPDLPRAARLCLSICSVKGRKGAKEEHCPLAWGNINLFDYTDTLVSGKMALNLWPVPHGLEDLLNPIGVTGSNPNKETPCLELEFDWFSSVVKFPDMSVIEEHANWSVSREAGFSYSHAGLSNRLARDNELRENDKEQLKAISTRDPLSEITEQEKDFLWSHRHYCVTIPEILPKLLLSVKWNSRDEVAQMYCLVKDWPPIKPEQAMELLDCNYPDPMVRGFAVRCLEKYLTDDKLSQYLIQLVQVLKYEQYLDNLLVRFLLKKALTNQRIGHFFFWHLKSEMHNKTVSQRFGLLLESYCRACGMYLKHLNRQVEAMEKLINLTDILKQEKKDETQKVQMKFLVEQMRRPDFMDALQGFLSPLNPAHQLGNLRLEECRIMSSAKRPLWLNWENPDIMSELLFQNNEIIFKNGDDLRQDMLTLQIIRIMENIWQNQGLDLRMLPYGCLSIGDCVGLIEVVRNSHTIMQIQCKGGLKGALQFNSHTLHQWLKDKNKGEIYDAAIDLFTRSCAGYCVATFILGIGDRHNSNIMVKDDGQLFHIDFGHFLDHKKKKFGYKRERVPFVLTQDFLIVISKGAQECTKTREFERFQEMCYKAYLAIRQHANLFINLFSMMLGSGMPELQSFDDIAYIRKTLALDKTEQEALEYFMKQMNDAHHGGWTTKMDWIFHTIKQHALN
p110α catalytic subunit of PI3K, sequence (P27986 whole entry partner): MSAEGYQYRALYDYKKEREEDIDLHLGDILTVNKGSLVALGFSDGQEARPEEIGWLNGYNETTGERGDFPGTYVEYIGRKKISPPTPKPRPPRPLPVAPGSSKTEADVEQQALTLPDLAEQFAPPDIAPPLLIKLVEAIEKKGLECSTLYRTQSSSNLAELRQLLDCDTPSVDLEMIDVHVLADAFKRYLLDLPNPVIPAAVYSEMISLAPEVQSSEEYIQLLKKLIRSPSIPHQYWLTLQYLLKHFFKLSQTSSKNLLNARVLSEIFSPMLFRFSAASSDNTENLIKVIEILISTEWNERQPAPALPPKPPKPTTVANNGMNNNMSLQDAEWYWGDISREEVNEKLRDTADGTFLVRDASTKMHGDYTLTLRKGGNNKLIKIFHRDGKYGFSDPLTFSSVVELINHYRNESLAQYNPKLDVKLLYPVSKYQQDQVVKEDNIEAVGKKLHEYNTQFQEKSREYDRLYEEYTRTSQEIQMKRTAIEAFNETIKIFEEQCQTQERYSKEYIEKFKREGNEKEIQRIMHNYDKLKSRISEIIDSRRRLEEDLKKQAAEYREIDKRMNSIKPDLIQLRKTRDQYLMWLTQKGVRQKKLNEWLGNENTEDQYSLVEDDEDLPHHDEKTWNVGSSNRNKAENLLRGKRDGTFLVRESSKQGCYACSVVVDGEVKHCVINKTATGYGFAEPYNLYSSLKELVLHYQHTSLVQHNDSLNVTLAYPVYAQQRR
Suitable in vitro assays for measuring PI3K activity and the inhibition thereof by compounds are known. Typically, the assay will measure PI3K-induced ATP consumption. […] Cellular activity can be determined using assays as described in Biological Examples 2, 3, and 4 of WO2007044729. […]
The purpose of the present study is to identify kinases and kinase-regulated signaling pathways that compensate for PI3K inhibition in human breast cancer cells. […] Gene expression from three independent experiments was measured using the Gene titan 3′ microarray. *, p<0.05; **, p<0.01 versus 0 hours, as shown in FIG. 5. […]

Assay [3] relates to human breast cancer cell lines. Nature of the assay: cell proliferation (cell counting) and crystal violet assays. The format is cell-based. The procedure: Cells were seeded in 12-well plates at a density of 2.5-3.5×10^4 cells/well in medium containing 2.5% FBS±inhibitors. Media and inhibitors were replaced every 3 days. On the days indicated in figures, cells were trypsinized and counted in a Beckman Coulter counter. For crystal violet assay, 5×10^4 cells/well were seeded in 6-well plates and grown in absence or presence of compound A for 6 days, fixed in methanol, stained with crystal violet, and photographed using an Olympus DP10 camera.
A panel of breast cancer cell lines with dysregulated PI3K activity was treated with increasing doses of compound A under two- and three-dimensional (2D and 3D) growth conditions. All experiments were conducted in 2.5% FBS-containing media, unless otherwise stated. […] This was further confirmed by immunoblot analysis of biomarkers of cell death and G1-S cell cycle transition in lysates from cells treated for 24 hours with compound A as shown in FIG. 10B.

The subject of assay [4] is BT474 xenografts. Nature of the assay: BT474 xenograft experiments. The format is in vivo, mice. The settings on record: trastuzumab 30 mg/kg twice-a-week i.p.; lapatinib 100 mg/kg daily; compound A 100 mg/kg daily gavage; 28 days.
Procedure: Tumor volumes were recorded twice-a-week. Each data point represents the mean tumor volume in mm^3±SE of 8 mice per type of treatment. CR=complete response to treatment.
Animal experiments were approved by the Institutional Animal Care Committee of Vanderbilt University Medical Center (VUMC). Mice were housed in the accredited Animal Care Facility of the VUMC. A 17β-estradiol pellet (Innovative Research of America) was injected subcutaneously (s.c.) into each 6- to 7-week-old athymic female mice (Harlan Sprague Dawley, Inc.) the day before tumor cell injection. BT474 cells (3×10^6) mixed 1:1 with Matrigel (BD Biosciences) were injected s.c. into the right flank of each mouse. Tumor diameters were measured with calipers twice-a-week and volume in mm^3 calculated with the formula: volume=width^2×length/2. […] Mice were euthanized after 28 days of treatment.
There was no significant drug-related toxicity in any of the treatment arms.

The IC50 is the concentration that inhibits the measured activity by half. For the molecule `COc1ccc(Cl)c(Nc2nc3ccccc3nc2NS(=O)(=O)c2cccc(NC(=O)C(C)(C)N)c2)c1` [Compound A], the “HER3 mRNA levels” value in assay [1] is “increase in HER3 mRNA that appeared maximal at 6 hours and was maintained up to 48 hours”. For the same molecule, the IC50 is 0.039 µM in assay [2] and roughly 6 µM in assay [3] (Homo sapiens, panel of breast cancer cell lines, 2.5% FBS, read-out: IC50 of cell growth (2D)). Also, the “cell number below baseline” value in assay [3] (20 μM) is listed as “induced cell death”. Besides, in assay [3] (panel of breast cancer cell lines, increasing doses), the 2D growth entry is given as “inhibited the 2D growth of all cell lines in a dose-dependent manner”. Moreover, in assay [4], the “tumor growth, monotherapy” value is “significantly delayed tumor growth”.

(Values after patent US9011863B2, “Combinations of kinase inhibitors for the treatment of cancer” (Exelixis, Inc., priority 2010, dated 2015).)
